Results as given in patent US20220142948A1, “COMPOSITIONS AND METHODS FOR MODULATING METABOLIC REGULATORS OF T CELL PATHOGENICITY” (The Broad Institute, Inc., priority 2019, published 2022).
“Also recorded” adds a separate entry of the source.

Assays:
[1] = tested on: Th17 cells (Th17n, Th17p); test: T cell differentiation culture and flow cytometry (intracellular cytokine and transcription factor staining, CellTrace proliferation); details: for IL-17 positive CD4 T cells / IL-17 expression: glycolysis enzyme inhibitors, non-pathogenic or pathogenic Th17 conditions, cells after one division
Procedure: Naïve CD4+CD44-CD62L+CD25-T cells were sorted using BD FACSAria sorter and activated with plate-bound anti-CD3 (1 μg/ml) and antiCD28 antibodies (2 μg/ml) in the presence of cytokines at a concentration of 5×10^5 cells/ml.
Naïve CD4+CD44-CD62L+CD25− T cells with or without including IL-17A.GFP+ were sorted using BD FACSAria sorter and activated with plate-bound anti-CD3 and antiCD28 antibodies (each 1 μg/ml) in the presence of cytokines at a concentration of 5×10^5 cells/ml. For T cell differentiations the following combinations of cytokines were used: pathogenic Th17 (Th17p): 25 ng/ml rmIL-6, 20 ng/ml rmIL-1b (both Miltenyi Biotec) and 20 ng/ml rmIL-23 (R&D systems); non-pathogenic Th17 (Th17n): 25 ng/ml rmIL-6 and 2 ng/ml of rhTGFb1 (Miltenyi Biotec). For differentiation experiments, cells were harvested at 72 hours and were performed in the presence or absence of 50 μM EGCG (Selleck Chemicals), 50 μM DHEA, 40 μM DCA, 10 μM Shikonin (all Sigma) as indicated.
Proliferation was assessed by staining with CellTrace Violet (Thermo Fisher Scientific) per manufacturer's instructions. All stainings were analyzed on a FACS LSR II (BD Bioscience) and using FlowJo software.

[2] = tested on: Th17 cells (Th17n, Th17p); test: Legendplex analysis of cytokines in culture supernatant; type: cell-based, mouse; details: glycolysis enzyme inhibitors; Th17 cell cultures
Procedure: Legendplex. Cytokine concentrations in supernatants of in vitro cultures were analyzed by the LegendPlex Mouse Th Cytokine Panel (13-plex) (BioLegend) according to the manufacturer's instructions and analyzed on a FACS LSR II (BD Biosciences).
Seahorse assay was performed and seahorse media was prepared following manufacturer instructions (Agilent). Cells were re-stimulated with PMA/ionomycin for four hours in the presence of brefaldin and monensin before analysis for cytokines by intracellular cytokine staining. Cytokine concentrations in supernatants of in vitro cultures were analyzed by the LegendPlex Mouse Th Cytokine Panel (13-plex) (BioLegend) according to the manufacturer's instructions and analyzed on a FACS LSR II (BD Biosciences).

[3] = tested on: MOG35-55 specific T cells; test: Antigen-specific recall response of draining lymph node cells to MOG35-55 (thymidine incorporation, Legendplex); type: in vivo, mouse; details: mice transferred with DHEA-treated Th17p cells
Procedure: FIG. 37A-37I—Targeting ODC1 and SAT1 alleviate EAE. (A) Schematics of the polyamine pathway; (B-D) The effects of chemical inhibition of ODC1 by DFMO on EAE. Wildtype mice were immunized with MOG35-55/CFA to induce experimental autoimmune encephalomyelitis and followed for clinical scoring. DFMO were provided in drinking water from day 0 for 10 days in experimental group. B, Clinical score over time. […] C, Antigen-specific cell proliferation is measured by thymidine incorporation after culturing cells isolated from draining lymph node of mice (d15 post immunization) with increasing dose of MOG35-55 peptide for 3 days. D, Flow cytometric analysis of intracellular Foxp3 expression in T cells isolated from CNS at day 15 post immunization. (E-I) The effects of genetic perturbation of SAT1. E, The effects of SAT1 deficiency on metabolome. Abundance of metabolites in the polyamine pathway were determined by LC/MS based metabolomics. Th17n and Th17p cells were differentiated in vitro from naïve cells isolated from WT or SAT1^−/− mice. (F-I) The effects of SAT1 deficiency on EAE. EAE were induced as in (B) in wildtype and SAT1^fl/flCD4^cre mice. F, Clinical score (left) and histological score (right) showing the number of CNS infiltrates show representative experiment with 5 WT and 8 CKO mice. G-H, Cells were isolated from draining lymph node of mice (d23 post immunization) and co-cultured with increasing dose of MOG35-55 peptide for 3 days. Antigen-specific cell proliferation is measured by thymidine incorporation (G) and antigen-specific cytokine secretion by legendplex (H). I, Flow cytometry analysis of intracellular transcription factor expression in CD4 T cells isolated from CNS day 15 post immunization. Linear regression analysis (b, c, f, g), two-way anova (e) and student t test (d, i) were used for statistical analysis.
FIG. 46A-46J—EGCG exacerbates and DHEA ameliorates Th17-induced EAE in vivo. 2D2 TCR-transgenic Th17 cells were adoptively transferred after differentiation in vitro in the presence of an inhibitor or vehicle as indicated. (A, C, G) Clinical outcome of EAE; (B, D) Histological score based on cell infiltrates in meninges and parenchyma of CNS; (E, F) Draining lymph node (cervical) from respective mice were isolated and pulsed with increasing dose of MOG35-55 peptide for 3 days and (E) subjected to thymidine incorporation assay; or (F) measurement of cytokine secretion by Legendplex and flow cytometry. Concentrations were normalized through division by the respective response to no antigen control (H-I) Independent pathological report of CNS isolated from mice with EAE at end point (d35 for EGCG experiments; d28 for DHEA experiment); Optic nerves were not found in the histologic section from one animal in the EGCG+IL-23 group. (J) Representative histology of spinal cord and spinal nerve roots. […] PC, posterior column; PH, posterior horn. Individual mouse numbers are indicated. […] All are H. & E., 40× objective. Three similar experiments were performed.

[4] = tested on: experimental autoimmune encephalomyelitis (EAE); test: Adoptive transfer EAE with 2D2 TCR-transgenic Th17 cells differentiated in the presence of inhibitor; type: in vivo, mouse
Description: For adoptive transfer EAE, naïve 2D2 transgenic T cells were sorted and differentiated into Th17n cells+/−EGCG or Th17p+/−DHEA as described for three days followed by a resting phase in the presence of IL-23 alone for 2 days. Cells were then harvested and restimulated with plate-bound anti-CD3 and anti-CD28 for 2 days prior to transfer. 2-8 million cells were transferred per mouse intravenously.
For adoptive transfer EAE, naive T cells (CD4+CD44-CD62L+CD25-) were isolated from 2D2 TCR-transgenic mice and activated with anti-CD3 ([…]) and anti-CD28 ([…]) in the presence of differentiation cytokines for 68h. Cells were rested for 2 days and restimulated with plate-bound anti-CD3 (0.5 mg/ml for pathogenic condition; […] for non-pathogenic condition) and anti-CD28 ([…]) for 2 days prior to transfer. Equal number (2 to 8 million) cells were transferred per mouse intravenously.

[5] = tested on: Th17n, Th17p and iTreg cells; test: Population (bulk) RNA-seq of in vitro differentiated T cells; type: cell-based, mouse
Procedure: (§1) RNA-seq. For population (bulk) RNA-seq, in vitro differentiated T-cells were sorted for live cells and lysed with RLT Plus buffer and RNA was extracted using the RNeasy Plus Mini Kit (Qiagen). Full-length RNA-seq libraries were prepared as previously described and paired-end sequenced (75 bp×2) with a 150 cycle Nextseq 500 high output V2 kit.
Bulk RNA-Seq and SMART-Seq2 analysis. Applicants aligned single-cell SMART-Seq2 libraries with Bowtie2, quantified TPM gene expression with RSEM, and performed QC as Applicants described in detail in a previous publication^51. This computational pipeline is a massively revised and updated version of the one originally used to analyze these libraries^19. Batch effects and other nuisance factors were normalized with a model chosen empirically with SCONE ^52. Bulk RNA-Seq were processed with a modified variant of the same pipeline. In the absence of UMIs, differentially expressed genes were called through a linear model fitted to TPM values with the limma R package and with a mean-variance trend added to the empirical bayes prior^53,54.
as §1
Bulk RNA libraries from DFMO- or vehicle-treated Th17p, Th17n, or Treg were studied with 3 replicates per condition for a total of 18 libraries as shown in FIG. 36A. Genes that are associated with a Th17 or Treg programs (orange and purple, respectively, in FIG. 36B-C) were determined by differential expression test between bulk RNA libraries of (vehicle-treated) Th17n and Th17p on one side and Treg on the other with BH-adjusted p<0.05 and absolute value of log 2 fold-change of at least 1.5. Genes associated with the Th17p or Th17n program (magenta and green, respectively, in FIG. 40A) were determined by differential expression test between bulk RNA libraries of (vehicle-treated) Th17p vs. Th17n with the same thresholds. The PCA shown in FIG. 36A was computed on the set of 3,414 that were differentially associated with Th17, Treg, Th17p, or Th17n programs by the aforementioned criteria to focus it on the subspace of the transcriptome relevant to Th17 pathogenicity phenotypes.
Applicants aligned single-cell SMART-Seq libraries with Bowtie2, quantified TPM gene expression with RSEM, and performed QC as Applicants described in detail in a previous publication (Fletcher et al., 2017). This computational pipeline is a massively revised and updated version of the one originally used to analyze these libraries (Gaublomme et al., 2015). Batch effects and other nuisance factors were normalized with a model chosen empirically with SCONE (Cole et al., 2019). Bulk RNA-Seq were processed with a modified variant of the same pipeline.
For the Smart-Seq libraries, due the absence of UMIs in the dataset, differentially expressed genes were called through a linear model _tted to TPM values with the limma R package and with a mean-variance trend added to the empirical Bayes prior (Ritchie et al., 2015). For the bulk RNA libraries, differentially expressed genes were called with limma-trend or limma-voom (Law et al., 2014) depending on the variance of library sizes, as recommended in the limma package manual (Smyth, 2019).

Th17n and Th17p cells = test: Seahorse assay, oxygen consumption rate; type: cell-based, mouse; details: 40 uM etomoxir
Procedure: FIG. 44A-44I—Differential usage of glycolysis and fatty acid oxidation by pathogenic and non-pathogenic Th17 cells. (A) A diagram of central carbon metabolism, overlaid with Compass prediction for differential potential activity between Th17p and Th17n. […] (B) Th17n, Th17p and Treg cells were differentiated as described (STAR Methods) and replated with Seahorse media at 68h for Seahorse assay. Extracellular acidification rate (ECAR) and oxygen consumption rate (OCR) are reported in response to mitostress test. (C) Th17p and Th17n cells were differentiated and harvested at 68h (left columns) or replated in fresh media with no TCR stimulation or cytokine for 15 minutes (right columns) and subject to LC/MS based metabolomics. (D) Cells were harvested as in C and pulsed with 13C-tagged glucose for 15 minutes. Shown is the ratio of 13C-tagged carbon out of the total carbon content associated with the metabolite (STAR Methods). (E) Th17n and Th17p cells were measured for their oxygen consumption rate in the presence of control or 40 uM etomoxir. […]
Seahorse assay was performed and seahorse media was prepared following manufacturer instructions (Agilent). […] Cytokine concentrations in supernatants of in vitro cultures were analyzed by the LegendPlex Mouse Th Cytokine Panel (13-plex) (BioLegend) according to the manufacturer's instructions and analyzed on a FACS LSR II (BD Biosciences).

[6] = tested on: other histone demethylases; details: cited from earlier work
KDMSB = KDMSB (Homo sapiens, UniProt Q9UGL1); details: cited from earlier work
KDMSA = KDMSA (Homo sapiens, UniProt P29375); details: cited from earlier work
KDMSC = KDMSC (Homo sapiens, UniProt P41229); details: cited from earlier work
100 protein kinases = details: at a concentration of 30 μM; cited from earlier work
UTX (KDM6A) = UTX (KDM6A) (Homo sapiens, UniProt O15550); details: cited from earlier work

Chain of KDMSB (Q9UGL1 whole entry): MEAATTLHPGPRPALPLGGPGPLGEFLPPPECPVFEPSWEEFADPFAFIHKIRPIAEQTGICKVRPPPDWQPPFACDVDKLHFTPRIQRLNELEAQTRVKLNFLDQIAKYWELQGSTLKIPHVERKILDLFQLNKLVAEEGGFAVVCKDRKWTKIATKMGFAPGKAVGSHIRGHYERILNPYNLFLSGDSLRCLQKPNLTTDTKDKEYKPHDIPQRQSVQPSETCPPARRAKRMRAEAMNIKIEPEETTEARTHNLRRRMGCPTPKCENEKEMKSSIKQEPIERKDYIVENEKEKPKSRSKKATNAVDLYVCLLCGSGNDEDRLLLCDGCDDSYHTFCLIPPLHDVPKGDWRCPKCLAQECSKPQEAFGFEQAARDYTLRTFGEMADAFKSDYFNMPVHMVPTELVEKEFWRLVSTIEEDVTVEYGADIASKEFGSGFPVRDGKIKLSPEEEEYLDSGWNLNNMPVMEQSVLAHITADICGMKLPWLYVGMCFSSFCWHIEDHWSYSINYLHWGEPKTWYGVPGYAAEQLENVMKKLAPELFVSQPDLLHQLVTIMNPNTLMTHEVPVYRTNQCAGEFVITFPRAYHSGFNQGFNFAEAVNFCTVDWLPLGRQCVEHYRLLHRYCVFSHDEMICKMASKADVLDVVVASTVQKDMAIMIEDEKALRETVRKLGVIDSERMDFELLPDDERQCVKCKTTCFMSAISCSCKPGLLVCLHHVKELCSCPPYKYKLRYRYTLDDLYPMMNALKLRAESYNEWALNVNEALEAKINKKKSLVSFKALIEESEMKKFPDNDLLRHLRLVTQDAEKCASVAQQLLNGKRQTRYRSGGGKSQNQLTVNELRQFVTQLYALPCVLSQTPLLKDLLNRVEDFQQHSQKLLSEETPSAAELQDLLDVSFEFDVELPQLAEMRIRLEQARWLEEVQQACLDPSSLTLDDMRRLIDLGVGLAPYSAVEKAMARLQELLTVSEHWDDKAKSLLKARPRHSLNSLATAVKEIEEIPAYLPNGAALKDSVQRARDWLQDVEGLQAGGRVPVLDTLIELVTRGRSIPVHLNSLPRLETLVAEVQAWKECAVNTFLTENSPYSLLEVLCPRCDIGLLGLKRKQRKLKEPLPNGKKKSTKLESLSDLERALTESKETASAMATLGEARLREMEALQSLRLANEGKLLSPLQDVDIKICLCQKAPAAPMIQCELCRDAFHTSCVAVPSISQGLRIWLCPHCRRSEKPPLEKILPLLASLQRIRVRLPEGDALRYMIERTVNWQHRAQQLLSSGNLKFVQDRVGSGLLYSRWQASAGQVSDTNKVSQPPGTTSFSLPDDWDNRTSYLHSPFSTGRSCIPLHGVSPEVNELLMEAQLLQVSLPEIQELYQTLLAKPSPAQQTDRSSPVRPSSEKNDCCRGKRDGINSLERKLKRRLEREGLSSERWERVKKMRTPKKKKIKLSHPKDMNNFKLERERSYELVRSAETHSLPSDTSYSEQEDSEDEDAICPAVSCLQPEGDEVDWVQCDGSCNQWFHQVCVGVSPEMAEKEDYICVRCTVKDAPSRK
Chain of KDMSC (P41229 whole entry): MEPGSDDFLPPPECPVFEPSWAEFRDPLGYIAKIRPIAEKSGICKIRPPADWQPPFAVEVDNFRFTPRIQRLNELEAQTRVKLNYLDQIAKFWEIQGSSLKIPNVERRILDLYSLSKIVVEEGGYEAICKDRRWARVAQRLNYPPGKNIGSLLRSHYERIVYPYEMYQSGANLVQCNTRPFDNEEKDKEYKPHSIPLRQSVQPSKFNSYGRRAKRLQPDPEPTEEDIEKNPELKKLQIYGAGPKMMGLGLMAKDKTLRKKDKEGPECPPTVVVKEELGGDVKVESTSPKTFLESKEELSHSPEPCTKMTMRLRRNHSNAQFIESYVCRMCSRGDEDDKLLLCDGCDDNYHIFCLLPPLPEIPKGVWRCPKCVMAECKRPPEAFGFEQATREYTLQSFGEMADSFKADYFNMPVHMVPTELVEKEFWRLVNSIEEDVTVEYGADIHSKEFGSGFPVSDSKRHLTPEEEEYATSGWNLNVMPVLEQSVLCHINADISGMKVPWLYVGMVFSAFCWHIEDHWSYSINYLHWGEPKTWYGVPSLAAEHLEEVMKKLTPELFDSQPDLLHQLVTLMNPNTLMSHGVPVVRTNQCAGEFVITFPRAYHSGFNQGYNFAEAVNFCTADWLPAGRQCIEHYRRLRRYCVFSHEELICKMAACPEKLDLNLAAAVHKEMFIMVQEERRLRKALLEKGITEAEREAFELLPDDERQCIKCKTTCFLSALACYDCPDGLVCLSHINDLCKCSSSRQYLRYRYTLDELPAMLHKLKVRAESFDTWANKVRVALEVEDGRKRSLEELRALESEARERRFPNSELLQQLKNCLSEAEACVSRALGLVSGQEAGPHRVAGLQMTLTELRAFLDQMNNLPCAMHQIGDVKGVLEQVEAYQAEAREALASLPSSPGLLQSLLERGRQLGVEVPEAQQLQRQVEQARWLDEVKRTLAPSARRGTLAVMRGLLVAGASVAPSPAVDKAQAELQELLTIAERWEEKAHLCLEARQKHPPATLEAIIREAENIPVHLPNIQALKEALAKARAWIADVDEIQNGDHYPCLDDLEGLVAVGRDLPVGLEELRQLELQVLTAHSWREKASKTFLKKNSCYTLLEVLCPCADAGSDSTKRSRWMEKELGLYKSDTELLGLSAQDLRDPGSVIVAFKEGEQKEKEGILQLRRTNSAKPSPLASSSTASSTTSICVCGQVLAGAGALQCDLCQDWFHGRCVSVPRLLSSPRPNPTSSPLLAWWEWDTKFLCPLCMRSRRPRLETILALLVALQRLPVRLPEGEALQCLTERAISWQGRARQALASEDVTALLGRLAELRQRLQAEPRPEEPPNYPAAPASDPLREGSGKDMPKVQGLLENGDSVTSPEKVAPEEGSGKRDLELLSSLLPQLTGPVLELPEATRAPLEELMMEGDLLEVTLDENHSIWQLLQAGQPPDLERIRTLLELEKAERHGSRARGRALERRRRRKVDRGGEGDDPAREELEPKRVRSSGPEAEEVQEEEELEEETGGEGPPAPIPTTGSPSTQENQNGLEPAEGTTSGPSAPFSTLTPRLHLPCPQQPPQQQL
Chain of KDMSA (P29375 whole entry): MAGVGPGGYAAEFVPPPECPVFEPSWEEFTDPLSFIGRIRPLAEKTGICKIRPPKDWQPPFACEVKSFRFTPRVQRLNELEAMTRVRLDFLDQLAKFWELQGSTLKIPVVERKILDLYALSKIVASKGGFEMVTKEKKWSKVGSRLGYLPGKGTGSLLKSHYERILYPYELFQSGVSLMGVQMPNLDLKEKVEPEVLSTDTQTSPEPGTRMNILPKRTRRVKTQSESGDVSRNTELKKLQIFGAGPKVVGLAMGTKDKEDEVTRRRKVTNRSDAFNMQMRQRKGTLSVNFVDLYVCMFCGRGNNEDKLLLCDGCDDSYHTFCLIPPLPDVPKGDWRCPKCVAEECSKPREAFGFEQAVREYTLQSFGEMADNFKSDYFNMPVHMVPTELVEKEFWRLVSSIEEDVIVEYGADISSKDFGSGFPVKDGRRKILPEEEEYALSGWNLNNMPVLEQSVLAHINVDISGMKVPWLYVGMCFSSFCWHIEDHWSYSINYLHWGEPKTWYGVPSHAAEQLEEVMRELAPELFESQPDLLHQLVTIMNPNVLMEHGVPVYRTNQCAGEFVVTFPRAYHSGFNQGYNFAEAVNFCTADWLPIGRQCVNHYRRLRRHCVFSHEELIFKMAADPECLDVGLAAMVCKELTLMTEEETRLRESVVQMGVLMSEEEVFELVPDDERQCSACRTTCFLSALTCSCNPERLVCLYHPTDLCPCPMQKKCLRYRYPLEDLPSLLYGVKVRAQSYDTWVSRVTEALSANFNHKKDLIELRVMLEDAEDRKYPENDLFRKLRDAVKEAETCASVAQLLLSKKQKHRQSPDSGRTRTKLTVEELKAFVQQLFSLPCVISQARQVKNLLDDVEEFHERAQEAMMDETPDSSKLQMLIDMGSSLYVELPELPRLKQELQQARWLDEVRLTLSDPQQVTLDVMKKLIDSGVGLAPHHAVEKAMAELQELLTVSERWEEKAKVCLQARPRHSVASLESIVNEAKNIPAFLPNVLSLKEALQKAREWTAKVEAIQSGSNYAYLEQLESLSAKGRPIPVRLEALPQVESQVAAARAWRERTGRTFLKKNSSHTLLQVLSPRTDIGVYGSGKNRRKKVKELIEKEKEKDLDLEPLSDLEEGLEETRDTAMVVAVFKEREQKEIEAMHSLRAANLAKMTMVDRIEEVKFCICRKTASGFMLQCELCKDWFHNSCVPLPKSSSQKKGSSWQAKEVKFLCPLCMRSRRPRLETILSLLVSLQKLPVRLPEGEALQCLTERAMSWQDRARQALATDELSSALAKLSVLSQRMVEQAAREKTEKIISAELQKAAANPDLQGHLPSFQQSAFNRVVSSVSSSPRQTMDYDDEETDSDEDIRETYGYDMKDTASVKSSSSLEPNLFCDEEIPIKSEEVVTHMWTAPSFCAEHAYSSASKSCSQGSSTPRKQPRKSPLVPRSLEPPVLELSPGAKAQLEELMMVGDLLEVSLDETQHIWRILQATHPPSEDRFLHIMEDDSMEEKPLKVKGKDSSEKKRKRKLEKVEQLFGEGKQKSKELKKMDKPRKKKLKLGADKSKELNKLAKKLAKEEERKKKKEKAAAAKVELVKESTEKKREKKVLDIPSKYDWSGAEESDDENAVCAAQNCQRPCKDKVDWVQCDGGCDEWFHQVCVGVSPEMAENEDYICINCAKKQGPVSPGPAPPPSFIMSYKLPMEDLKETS

Question: Which “IL-17 positive CD4 T cells / IL-17 expression” value [1] does the source give for `O=C(OCC(O)CO)C(Cl)Cl` (stereo not shown) [DCA, 2,3-dihydroxypropyl-dichloroacetate] here?
Answer: increase

Question: And the “cytokine profile / cytokine production” value [2]?
Answer: retained their cytokine profile

Question: Which “IL-2 secretion in response to MOG” value [3] does the source give for `C[C@]12CC[C@H](O)CC1=CC[C@@H]1[C@@H]2CC[C@]2(C)C(=O)CC[C@@H]12` [DHEA, dehydroepiandrosterone] here?
Answer: increased

Question: And the “antigen-specific cytokine secretion in response to MOG” value [3]?
Answer: no significant alterations

Question: And the “optic neuritis/perineuritis in host mice” value ([4]; EGCG on Th17n, DHEA on Th17p)?
Answer: restricted

Question: What about the “EAE induced by Th17p cells” value ([4]; Th17p cells differentiated with inhibitor vs vehicle) of the same compound?
Answer: induced a milder form of the disease; also recorded: alleviates EAE; also recorded: reduced the severity of disease at peak of EAE; also recorded: ameliorates

Question: What about the “IL-17 positive CD4 T cells / IL-17 expression” value [1] of the same compound?
Answer: decrease

Question: And the IL1RN transcripts [5]?
Answer: significant decrease

Question: What about the IL9 transcripts [5] of the same compound?
Answer: significant decrease

Question: And the “pro-pathogenic transcriptional program / module” value ([5]; Th17n cells)?
Answer: does not induce an opposite effect

Question: And the “decrease in TBX21 (Tbet) transcripts” value ([5]; Th17p)?
Answer: 1 fold

Question: What about the pathogenic program ([5]; Th17p cells) of the same compound?
Answer: suppresses the pathogenic program

Question: What about the IL23R transcripts ([5]; both Th17p and Th17n) of the same compound?
Answer: significant decrease

Question: What about the TBX21 transcripts ([5]; both Th17p and Th17n) of the same compound?
Answer: significant decrease

Question: And the “decrease in IL-23R transcripts” value ([5]; both Th17p and Th17n)?
Answer: over 3 fold

Question: And the “position on PC1 (pathogenicity phenotype)” value ([5]; bulk RNA-Seq of d1 Th17n and Th17p cells)?
Answer: shifted them to a less pathogenic state

Question: And the “cytokine profile / cytokine production” value [2]?
Answer: curtailed cytokine production

Question: With `CCOC(=O)[C@@]1(CCCCCCOc2ccc(Cl)cc2)CO1` [etomoxir] as the compound, how does the oxygen consumption rate (Th17n and Th17p cells) read?
Answer: decreased

Question: For `O=C(O)CCNc1cc(N2CCc3ccccc3CC2)nc(-c2ccccn2)n1` [GSK-J1], which IC50 [6] is on record?
Answer: > 20000 nM

Question: What about the IC50 (KDMSB) of the same compound?
Answer: 170 nM

Question: What about the IC50 (KDMSA) of the same compound?
Answer: 6800 nM

Question: What about the IC50 (KDMSC) of the same compound?
Answer: 550 nM

Question: And the “inhibitory activity against 100 protein kinases” value (100 protein kinases)?
Answer: no significant inhibitory activity

Question: And the IC50 (UTX (KDM6A))?
Answer: 53 nM

Question: Which “rescue by putrescine of the observed effects of ODC1−/−” value ([1]; ODC1−/− Th17 cells) does the source give for `NCCCCN` [putrescine] here?
Answer: rescued

Question: And the “reversal by putrescine of the upregulation of Foxp3 by SAT1 inhibitor” value ([1]; Th17n cells, 2.5 mM putrescine)?
Answer: partially reversed

Question: What about the “rescue of the effect of DFMO by addition of putrescine” value (from here on “rescue of the effect of DFMO”) ([1]; cells treated with DFMO, 2.5 mM putrescine) of the same compound?
Answer: rescues the effect of DFMO; also recorded: completely reversed their phenotype

Question: And the “rescue by putrescine of the effect of diminazene aceturate” value ([1]; non-pathogenic Th17 cells)?
Answer: rescues the effect of diminazene aceturate

Question: What about the “rescue of the effect of DFMO” value ([1]; non-pathogenic Th17 cells) of the same compound?
Answer: rescues the effect of DFMO

Question: What about the “rescue by putrescine of the DFMO-induced increase in FoxP3 CD4 T cells” value ([1]; nonpathogenic Th17 cells) of the same compound?
Answer: rescues the increase in FoxP3 CD4 T cells

Question: And the “rescue of the effect of DFMO” value ([1]; pathogenic and non-pathogenic Th17 cells)?
Answer: rescues the effect of DFMO
